Values after ≈ are worked out from the molar mass of the structure shown. Structures can show the parent of a compound that is named as a salt. Marks after values point to notes of the source that are not given here.
Key:
[1] = Characterization of Compound 1 freeform forms: form change on storage or drying (XRPD); assay type: physicochemical
Experimental: Starting from Compound 1 Freeform Type D, polymorph screening experiments were performed under 50 conditions using different solvent-mediated crystallization or solid transition methods. The obtained solids were characterized by XRPD. According to XRPD comparison results, a total of 16 crystal forms were discovered, named as Type A˜P. The characterization results of all the forms were listed in Table 60.
Freeform Type O was obtained after adding anti-solvent toluene into DMSO solution of Freeform Type D and drying at ambient conditions. After drying at RT under vacuum for 1 day, diffraction peaks of Freeform Type K were observed. As Freeform Type K was a DMSO solvate, it is speculated that Freeform Type O was also a DMSO solvate.

[2] = Approximate solubility in different solvents at RT; assay type: physicochemical; conditions: RT; for solubility: organic solvent or mixture
Experimental: For each experiment, approximately 2 mg of sample was added into a 3-mL glass vial. Corresponding solvents were then added stepwise (50/50/200/700/1000 μL) into the vials until the solids were dissolved visually or a total volume of 2 mL was reached. Solubility results summarized in Table 64 to Table 66 were used to guide the solvent selection in polymorph screening design.

[3] = Competitive experiments of Type A and Type B in different solvent system at different temperature; assay type: physicochemical; conditions: MeOH/MTBE system
[4] = Kinetic solubility in water and bio-relevant media (SGF, FaSSIF, FeSSIF) at 37° C.; assay type: physicochemical; conditions: for S: Solubility: calculated by freeform; for FC: Form change: residual solids by XRPD
Experimental: Add 4 mL of medium (H2O, SGF, FaSSIF and FeSSIF). • Rolled at 37° C. (˜25 rpm). Sampling at 1, 2, 4 and 24 hrs. • At each time-point, sampled 0.8 mL of solution or suspension into a centrifuge tube prior to centrifugation (12000 rpm, 37° C., 5 min) and filtration through 0.45 μm PTFE membrane. • Tested pH and concentration for the filtrate. Analyze residual solids by XRPD.
0.1 g of NaCl and 0.05 g of Triton X-100 were weighed into a 50-mL volumetric flask. Purified water was added to dissolve the solid. 67.5 μL HCl (38%, 12M) was added after the solid was dissolved completely. pH was then adjusted to 1.8 using HCl (1 M) or NaOH (1 M). Purified water was added to the volume.
(§1) 0.17 g of anhydrous NaH2PO4, 0.021 g of NaOH and 0.31 g of NaCl were weighed into a 50-mL volumetric flask. ˜48 mL purified water was added to dissolve the solid. pH was adjusted to 6.5 using 1M HCl or 1M NaOH. Purified water was then added to the volume. 0.11 g of SIF powder was added into the volumetric flask.
as §1, with “0.41 mL” for “0.17 g”, “acetic acid, 0.20” for “anhydrous NaH2PO4, 0.021”, “0.59” for “0.31”, “5.0” for “6.5”, “0.56” for “0.11”

[5] = Hygroscopicity by DVS at 25° C.; assay type: physicochemical
Experimental: DVS was measured via a SMS (Surface Measurement Systems) DVS Intrinsic. The relative humidity at 25° C. were calibrated against deliquescence point of LiCl, Mg(NO3)2 and KCl.

[6] = Solid state stability at 25° C./60% RH and 40° C./75% RH for 1 week; assay type: physicochemical
Experimental: Each sample was added into a glass vial, sealed by parafilm with several holes, and kept under tested conditions. After one week, samples were taken for XRPD and HPLC purity test.

Experimental for physchem: 0.1 M KH2PO4 solution: added 1.36 g of solid KH2PO4 into a 100-mL volumetric flask, dissolve with ultrapure water and dilute to volume. 0.1 M K2HPO4 solution: added 1.74 g of solid K2HPO4 into a 100-mL volumetric flask, dissolve with ultrapure water and dilute to volume.
Transferred 100 mL of 0.1 M K2HPO4 solution and 30 mL of 0.1 M KH2PO4 to a 250-mL beaker and mix well. Adjusted to pH 7.4 with the KH2PO4 solution to obtain the aqueous pH 7.4 buffer. Pre-equilibrated n-octanol and aqueous buffer (phosphate pH 7.4 buffer) by adding 10 mL n-octanol and 10 mL aqueous buffer into a glass vial and keep it rolling for 24 hrs.
Weighed approximately 1.0 mg solids into a 3-mL glass vial which contained 2.0 mL of saturated n-octanol and accelerate dissolution by ultrasound sonication. Added 1.0 mL of complementary saturated aqueous buffer into the vial. Prepare samples in triplicate. Sealed the glass vial and mix on a rotary mixer at 25° C. for 24 hrs.
The phases were separated. The pH of the aqueous phase was measured by pH meter, and the concentrations of compounds in each phase were determined by HPLC. Samples in n-octanol phase were diluted 10 times by ACN. Distribution coefficient, referred to as Dow, was calculated as the concentration of the test compound in the n-octanol phase divided by the corresponding concentration in the aqueous phase.

SMILES: N#Cc1ccc(COc2cccc(C3CCN(Cc4nc5ccc(C(=O)O)cc5n4Cc4cncs4)CC3)n2)c(F)c1 [Freeform Type O]
- Form change ([1]; after drying at RT under vacuum): Change to Freeform Type K after drying at RT under vacuum.

SMILES: N#Cc1ccc(COc2cccc(C3CCN(Cc4nc5ccc(C(=O)O)cc5n4Cc4cncs4)CC3)n2)c(F)c1 [Freeform Type A]
- solubility ([2]; 1,4-Dioxane, thermodynamic from solid, 1,4-Dioxane): 1900 to 6300 µg/mL (≈ 3.26 to 10.8 mM)
- solubility ([2]; 2-MeTHF, thermodynamic from solid): 1900 to 6300 µg/mL (≈ 3.26 to 10.8 mM)
- solubility ([2]; ACN, thermodynamic from solid): 1000 to 1900 µg/mL (≈ 1.72 to 3.26 mM)
- solubility ([2]; Anisole, thermodynamic from solid): 1100 to 2100 µg/mL (≈ 1.89 to 3.6 mM)
- solubility ([2]; CPME, thermodynamic from solid): 1100 to 2100 µg/mL (≈ 1.89 to 3.6 mM)
- solubility ([2]; DMSO, thermodynamic from solid): > 40000 µg/mL
- solubility ([2]; EtOAc, thermodynamic from solid): 2000 to 6700 µg/mL (≈ 3.43 to 11.5 mM)
- Approximate solubility ([2]; H2O): S < 1.1 mg/mL
- solubility ([2]; IPA, thermodynamic from solid): 1100 to 2200 µg/mL (≈ 1.89 to 3.78 mM)
- solubility ([2]; IPAc, thermodynamic from solid): 1000 to 1900 µg/mL (≈ 1.72 to 3.26 mM)
- solubility ([2]; MIBK, thermodynamic from solid): 1000 to 2000 µg/mL (≈ 1.72 to 3.43 mM)
- solubility ([2]; MTBE, thermodynamic from solid): < 1000 µg/mL
- solubility ([2]; MeOH, thermodynamic from solid): 6700 to 20000 µg/mL (≈ 11.5 to 34.3 mM)
- Approximate solubility ([2]; THF): S > 38.0 mg/mL
- solubility ([2]; Toluene, thermodynamic from solid): < 1100 µg/mL
- solubility ([2]; n-Heptane, thermodynamic from solid): < 1000 µg/mL
- logP (physchem): 4.78
- logD at 24 h (physchem; pH 7.2): 1.96

SMILES: N#Cc1ccc(COc2cccc(C3CCN(Cc4nc5ccc(C(=O)O)cc5n4Cc4cncs4)CC3)n2)c(F)c1 [Meglumine salt Type B]
- thermodynamic stability, Type A versus Type B [3]: thermodynamically more stable

SMILES: N#Cc1ccc(COc2cccc(C3CCN(Cc4nc5ccc(C(=O)O)cc5n4Cc4cncs4)CC3)n2)c(F)c1 [Freeform Type F]
- Form change ([1]; after storage at RT): Change to Freeform Type J after storage at RT.

SMILES: N#Cc1ccc(COc2cccc(C3CCN(Cc4nc5ccc(C(=O)O)cc5n4Cc4cncs4)CC3)n2)c(F)c1 [Tris salt Type C]
- S: Solubility ([4]; FaSSIF, 37° C., 1 hr): 0.16 mg/mL
- FC: Form change ([4]; FaSSIF, 37° C., 1 hr): Yes
- S: Solubility ([4]; FaSSIF, 37° C., 2 hrs): 0.29 mg/mL
- FC: Form change ([4]; FaSSIF, 37° C., 2 hrs): Yes
- S: Solubility ([4]; FaSSIF, 37° C., 4 hrs): 0.28 mg/mL
- FC: Form change ([4]; FaSSIF, 37° C., 4 hrs): Yes
- S: Solubility ([4]; FaSSIF, 37° C., 24 hrs): 0.04 mg/mL
- FC: Form change ([4]; FaSSIF, 37° C., 24 hrs): Yes
- S: Solubility ([4]; FeSSIF, 37° C., 1 hr): 0.17 mg/mL
- FC: Form change ([4]; FeSSIF, 37° C., 1 hr): No
- S: Solubility ([4]; FeSSIF, 37° C., 2 hrs): 0.13 mg/mL
- FC: Form change ([4]; FeSSIF, 37° C., 2 hrs): No
- S: Solubility ([4]; FeSSIF, 37° C., 4 hrs): 0.02* mg/mL
- FC: Form change ([4]; FeSSIF, 37° C., 4 hrs): No
- FC: Form change ([4]; FeSSIF, 37° C., 24 hrs): Yes
- solubility at 24 h ([4]; FeSSIF, 37 °C, pH 5, fessif, thermodynamic from solid, FeSSIF, 37° C., at 24 hrs, read-out: solubility in FeSSIF): 140 µg/mL
- S: Solubility ([4]; H2O, 37° C., 1 hr): 0.46 mg/mL
- FC: Form change ([4]; H2O, 37° C., 1 hr): No
- S: Solubility ([4]; H2O, 37° C., 2 hrs): 0.59 mg/mL
- FC: Form change ([4]; H2O, 37° C., 2 hrs): Yes
- S: Solubility ([4]; H2O, 37° C., 4 hrs): 2.5 mg/mL
- FC: Form change ([4]; H2O, 37° C., 4 hrs): Yes
- S: Solubility ([4]; H2O, 37° C., 24 hrs): 0.99 mg/mL
- FC: Form change ([4]; H2O, 37° C., 24 hrs): Yes
- S: Solubility ([4]; SGF, 37° C., 1 hr): 0.15 mg/mL
- FC: Form change ([4]; SGF, 37° C., 1 hr): No
- S: Solubility ([4]; SGF, 37° C., 2 hrs): 0.03* mg/mL
- FC: Form change ([4]; SGF, 37° C., 2 hrs): No
- S: Solubility ([4]; SGF, 37° C., 4 hrs): 0.04* mg/mL
- FC: Form change ([4]; SGF, 37° C., 4 hrs): Yes
- S: Solubility ([4]; SGF, 37° C., 24 hrs): 0.17 mg/mL
- FC: Form change ([4]; SGF, 37° C., 24 hrs): Yes
- form change of residual solids (XRPD) after solubility test ([4]; all the media (H2O, SGF, FaSSIF, FeSSIF), after 24 hrs): form change was observed
- Kinetic Solubility, 24-h solubility ([4]; in FeSSIF, 24 h, comparison among selected salts and Freeform Type C): 2) In FeSSIF, the 24-h solubility of Tris salt Type C was higher.
- water uptake (DVS) ([5]; 25° C./80% RH): 1.44%
- hygroscopicity ([5]; DVS, 25° C.): slightly hygroscopic
- Water uptake at 25° C./80% RH ([5]; DVS, 25° C./80% RH): 1.44 wt %
- For change after DVS ([5]; XRPD after DVS test): No
- form change after DVS test (XRPD) ([5]; after DVS test): no form change
- HPLC peak Area, RRT 0.70 ([6]; 25° C./60% RH, 1 week): 0.06%
- HPLC peak Area, RRT 0.79 ([6]; 25° C./60% RH, 1 week): 0.23%
- HPLC peak Area, RRT 0.80 ([6]; 25° C./60% RH, 1 week): 0.05%
- HPLC peak Area, RRT 0.85 ([6]; 25° C./60% RH, 1 week): 0.07%
- HPLC peak Area, RRT 0.93 ([6]; 25° C./60% RH, 1 week): 0.09%
- Form change ([6]; 25° C./60% RH/Open/1 week): No
- Purity ([6]; 25° C./60% RH/Open/1 week): 96.76 Area %
- solid-state stability: form change and purity decrease ([6]; 25° C./60% RH/open and 40° C./75% RH/open, 1 week): no form change or significant purity decrease
- HPLC peak Area, RRT 0.70 ([6]; 40° C./75% RH, 1 week): 0.05%
- HPLC peak Area, RRT 0.79 ([6]; 40° C./75% RH, 1 week): 0.25%
- HPLC peak Area, RRT 0.80 ([6]; 40° C./75% RH, 1 week): 0.05%
- HPLC peak Area, RRT 0.85 ([6]; 40° C./75% RH, 1 week): <0.05%
- HPLC peak Area, RRT 0.93 ([6]; 40° C./75% RH, 1 week): 0.09%
- HPLC peak Area, RRT 0.99 ([6]; 40° C./75% RH, 1 week): <0.05%
- HPLC peak Area, RRT 1.12 ([6]; 40° C./75% RH, 1 week): 0.05%
- Form change ([6]; 40° C./75% RH/Open/1 week): No
- Purity ([6]; 40° C./75% RH/Open/1 week): 96.82 Area %
- HPLC peak Area, RRT 0.70 ([6]; Initial): 0.05%
- HPLC peak Area, RRT 0.79 ([6]; Initial): 0.21%
- HPLC peak Area, RRT 0.80 ([6]; Initial): 0.05%
- HPLC peak Area, RRT 0.85 ([6]; Initial): 0.08%
- HPLC peak Area, RRT 0.93 ([6]; Initial): 0.09%
- HPLC peak Area, RRT 1.12 ([6]; Initial): 0.06%
- Purity ([6]; Initial): 96.55 Area %

From US20240360122A1, “POLYMORPHIC FORMS AND SALTS OF A GLP-1R AGONIST” (Terns (Suzhou) Biotechnology Co., Ltd., priority 2023, published 2024)
